From US20260217701A1, “SELECTIVE BET INHIBITORS AND USES THEREOF” (Tay Therapeutics Limited, priority 2022, published 2026)
Several values for one entry are separate records, joined by “and”; a condition that tells them apart may be missing. Equal values may be shown once. Read-outs that look alike come from different tables or passages of the source.

Assay: Rat PK study #2 (Compound A PO 5 mg/kg, DMSO/PEG-400/water)
Type: in vivo, SD rats
Protocol: For the second rat pharmacokinetic study, the pharmacokinetics of Compound A were assessed in male SD rats. Compound A was prepared in a formulation of 5% DMSO, 40% PEG-400, and 55% Milli-Q water (see formulation in Table 2D) and delivered to animals orally (PO) at a dose of 5 mg/kg. Animals (n=3) were then monitored over a 24-hour period.
Blood samples (~0.2 mL) were collected according to a schedule (0.083, 0.25, 0.5, 1, 2, 4, 8, and 24 h following the initial dosing) by jugular vein by cannulation and EDTA-K2 was used as anticoagulant. Within 30 minutes of collection, the samples were centrifuged at approximately 4000 times g-force for 5 minutes at 4° C. to obtain blood plasma. The plasma samples were immediately divided into two aliquots (~75 μL each), transferred to a cryogenic vial, and stored in a freezer at −75±15° C. prior to analysis.
The concentration of Compound A in plasma samples was determined by liquid chromatography-mass spectrometry (LC-MS/MS) using a Shimadzu HPLC (DGU-405; LC-30AD XS CN; SIL-40AC XSCN; Plate Changer CN; CTO-40C CN; and CBM-40 CN) and an AB API 7500+LC/MS/MS instrument. Samples were analyzed on a Raptor Biphenyl 2.7 μm (50×2.1 mm) column. Solution A in the mobile phase was 95% water (0.1% formic acid) and solution B was 95% acetonitrile in water (0.1% formic acid), injection volume was 15 μL, and flow rate was 0.6 mL/min.
To prepare samples for analysis, serial concentrations were prepared by diluting the stock solution of analyte with a 50% acetonitrile in water solution. 5 μL working solutions (5, 10, 20, 50, 100, 500, 1000, 5000, and 10000 ng/ml) were added to 50 μL of the blank SD rat plasma to achieve calibration standards of ~0.5 to 1000 ng/ml (0.5, 1, 2, 5, 10, 50, 100, 500, and 1000 ng/ml) in a total volume of 55 μL. Five quality control samples at 1 ng/ml, 2 ng/ml, 5 ng/ml 50 ng/ml, and 800 ng/ml for plasma were prepared independently of those used for the calibration curves. These QC samples were prepared on the day of analysis in the same way as calibration standards.
55 μL of standards, 55 μL of QC samples and 55 μL of unknown samples (50 μL of unknown rat plasma with 5 μL of blank solution) were added to 200 μL of acetonitrile containing IS mixture (verapamil) for precipitating protein respectively. The samples were then vortexed for 30 s. After centrifugation at 4° C., 3900 rpm for 15 min, the supernatant was diluted 3 times with water. […] of diluted supernatant was injected into the LC/MS/MS system for quantitative analysis.

[1] = SD rats, PO 5 mg/kg, DMSO/PEG-400/Milli-Q water formulation, individual animals, 5 mg/kg
[2] = SD rats, PO 5 mg/kg, DMSO/PEG-400/Milli-Q water formulation, mean of 3 animals
[3] = male, Sprague-Dawley, rat, plasma, po, 5 mg/kg, SD rats, PO 5 mg/kg, DMSO/PEG-400/Milli-Q water formulation, mean of 3 animals

Question: With `Cn1cc(-c2ccccc2)c(-c2cn(C)c(=O)c3[nH]c(-c4cnn(C(F)(F)F)c4)cc23)cc1=O` [Compound A, 6-methyl-4-(1-methyl-2-oxo-5-phenyl-1,2-dihydropyridin-4-yl)-2-(1-(trifluoromethyl)-1H-pyrazol-4-yl)-1,6-dihydro-7H-pyrrolo[2,3-c]pyridin-7-one] as the compound, how does the Clinical observations (5 mg/kg PO, 24 h, one animal soft feces at 8 h) read?
Answer: no abnormalities recorded

Question: And the “Plasma Concentration” value (SD rats, PO 5 mg/kg, DMSO/PEG-400/Milli-Q water formulation, 0.083 h, individual animals, 5 mg/kg)?
Answer: 9.76 ng/mL and 0.719 ng/mL and 2.15 ng/mL

Question: And the “Plasma Concentration” value (SD rats, PO 5 mg/kg, DMSO/PEG-400/Milli-Q water formulation, 0.25 h, individual animals, 5 mg/kg)?
Answer: 7.42 ng/mL and 5.44 ng/mL and 12.5 ng/mL

Question: What about the “Plasma Concentration” value (SD rats, PO 5 mg/kg, DMSO/PEG-400/Milli-Q water formulation, 0.5 h, individual animals, 5 mg/kg) of the same compound?
Answer: 31.9 ng/mL and 15.4 ng/mL and 32.7 ng/mL

Question: And the “Plasma Concentration” value (SD rats, PO 5 mg/kg, DMSO/PEG-400/Milli-Q water formulation, 1 h, individual animals, 5 mg/kg)?
Answer: 62.6 ng/mL and 38.4 ng/mL and 101 ng/mL

Question: And the “Plasma Concentration” value (SD rats, PO 5 mg/kg, DMSO/PEG-400/Milli-Q water formulation, 2 h, individual animals, 5 mg/kg)?
Answer: 170 ng/mL and 64.8 ng/mL and 272 ng/mL

Question: And the “Plasma Concentration” value (SD rats, PO 5 mg/kg, DMSO/PEG-400/Milli-Q water formulation, 4 h, individual animals, 5 mg/kg)?
Answer: 472 ng/mL and 218 ng/mL and 496 ng/mL

Question: And the “Plasma Concentration” value (SD rats, PO 5 mg/kg, DMSO/PEG-400/Milli-Q water formulation, 8 h, individual animals, 5 mg/kg)?
Answer: 532 ng/mL and 181 ng/mL and 302 ng/mL

Question: And the “Plasma Concentration” value (SD rats, PO 5 mg/kg, DMSO/PEG-400/Milli-Q water formulation, 24 h, individual animals, 5 mg/kg)?
Answer: 2.11 ng/mL and 5.81 ng/mL and 6.35 ng/mL

Question: And the AUClast [1]?
Answer: 7070 ng·h/mL and 2643 ng·h/mL and 5058 ng·h/mL

Question: And the AUClast/D [1]?
Answer: 1414 mg·h/mL and 529 mg·h/mL and 1012 mg·h/mL

Question: What about the Cmax [1] of the same compound?
Answer: 532 ng/mL and 218 ng/mL and 496 ng/mL

Question: And the F [1]?
Answer: 81.5% and 30.5% and 58.3%

Question: What about the AUClast/D [2] of the same compound?
Answer: 985 mg·h/mL

Question: What about the F [2] of the same compound?
Answer: 56.8%

Question: What about the concentration at 1 h (male, SD, rat, plasma, po, 5 mg/kg, SD rats, PO 5 mg/kg, DMSO/PEG-400/Milli-Q water formulation, 1 h, mean of 3 animals) of the same compound?
Answer: 67 ng/mL

Question: And the concentration at 2 h (male, SD, rat, plasma, po, 5 mg/kg, SD rats, PO 5 mg/kg, DMSO/PEG-400/Milli-Q water formulation, 2 h, mean of 3 animals)?
Answer: 169 ng/mL

Question: And the concentration at 4 h (male, SD, rat, plasma, po, 5 mg/kg, SD rats, PO 5 mg/kg, DMSO/PEG-400/Milli-Q water formulation, 4 h, mean of 3 animals)?
Answer: 395 ng/mL

Question: What about the concentration at 8 h (male, SD, rat, plasma, po, 5 mg/kg, SD rats, PO 5 mg/kg, DMSO/PEG-400/Milli-Q water formulation, 8 h, mean of 3 animals) of the same compound?
Answer: 338 ng/mL

Question: And the concentration at 0.083 h (male, Sprague-Dawley, rat, plasma, po, 5 mg/kg, SD rats, PO 5 mg/kg, DMSO/PEG-400/Milli-Q water formulation, 0.083 h, mean of 3 animals)?
Answer: 4.21 ng/mL

Question: What about the concentration at 0.25 h (male, Sprague-Dawley, rat, plasma, po, 5 mg/kg, SD rats, PO 5 mg/kg, DMSO/PEG-400/Milli-Q water formulation, 0.25 h, mean of 3 animals) of the same compound?
Answer: 8.5 ng/mL

Question: And the concentration at 0.5 h (male, Sprague-Dawley, rat, plasma, po, 5 mg/kg, SD rats, PO 5 mg/kg, DMSO/PEG-400/Milli-Q water formulation, 0.5 h, mean of 3 animals)?
Answer: 26.7 ng/mL

Question: And the concentration at 24 h (male, Sprague-Dawley, rat, plasma, po, 5 mg/kg, SD rats, PO 5 mg/kg, DMSO/PEG-400/Milli-Q water formulation, 24 h, mean of 3 animals)?
Answer: 4.75 ng/mL

Question: What about the Tmax (male, Sprague-Dawley, rat, plasma, po, 5 mg/kg, SD rats, PO 5 mg/kg, DMSO/PEG-400/Milli-Q water formulation, individual animals) of the same compound?
Answer: 8 h

Question: What about the AUC(0-t) [3] of the same compound?
Answer: 4920 ng·h/mL

Question: What about the Tmax [3] of the same compound?
Answer: 5.33 h

Question: And the Cmax (male, Sprague-Dawley, rat, plasma, po, 5 mg/kg, SD rats, PO 5 mg/kg, DMSO/PEG-400/Milli-Q water formulation, mean of 3 animals, read-out: Cmax)?
Answer: 415 ng/mL
